Source: US8252829B2, “Aminopyrrolidinone derivatives and uses thereof” (Link Medicine Corporation, priority 2009, dated 2012)

Legend:
[1] = biological target: farnesyl transferase (FTase) (Homo sapiens, UniProt P49354+P49356); assay: In vitro farnesyl transferase assay (fluorescent dansyl-pentapeptide); type: biochemical; settings: dGCVLS 4 μM, FPP 5 μM, 25-50 nM FTase, 1% DMSO, room temperature
Experimental: Compounds were analyzed for inhibition of farnesyl transferase (FTase) activity using an established fluorescent peptide-based assay (Pompliano et al 1992 J. Am. Chem. Soc. 114:7945; U.S. Pat. No. 5,525,479, issued Jun. 11, 1996; each of which is incorporated herein by reference). In summary, a dansyl-pentapeptide (dGCVLS) was incubated at 4 μM with 5 μM farnesyl pyrophosphate (FPP) and 25-50 nM FTase in 50 mM Tris-HCl/12 mM MgCl2/12 μM ZnCl2/6 mM DTT/0.2% octyl-D-β-glucopyranoside/pH 7.0 at room temperature while the increase in fluorescence of the peptide at Ex=340 nm, Em=485 nm upon farnesyl addition was monitored continuously by a spectrofluorometer. Test compounds were added to the reaction mixture and the final results were compared to negative control (with solvent only), to allow measurement of the degreee of inhibition at each concentration of compound tested. Serial dilution series of test compounds were used to allow measurement of the IC50s and calculation of the resultant Ki. The linear portion of the reaction progress curve thus created was measured to yield an initial rate (Vo); a plot of Vo versus inhibitor concentration was fit by non-linear regression analysis (GraphPad Prism software) to calculate the […] and the Ki. All reactions in the inhibitor experiments contain a final concentration of 1% DMSO.

[2] = system: Farnesyl Transferase (Ras farnesylation) in COS-7 cells; assay: Cellular assay for farnesyl transferase activity (cytosolic Ras in COS-7 cells, Western blot); type: cell-based; settings: 24 hr treatment, cytosolic Ras/actin ratio, read-out: Cell IC50
Description: Ras is a small GTP binding protein whose farnesylation and condequent membrane association can be reduced by inhibition of farnesyl transferase (Appels et al., Oncologist 10:565-578, 2005; Basso et al., J. Lipid Res. 47:15-31, 2006; Tamanoi, Trends Biochem. Sci. 18:349-353, 1993; each of which is incorporated herein by reference). Treatment with certain farnesyl transferase inhibitors (FTIs) reduces the farnesylation and membrane association of Ras, leading to accumulation of Ras in the cytosol of the cells. An assay was developed to monitor FTase activity, based on the amount of Ras present in the cytosolic fraction of COS-7 cells after FTI treatment. On day 0, COS-7 cells were passaged into 6-well plates at a density of 4×10^5 cells/well. Beginning on day 1, cells were treated with test compounds (e.g. FTIs) in 0.2% DMSO for 24 hr. On day 2, cells were lysed by passage through a 25 gauge needle 10 times in 100 μl Buffer 1 (50 mM Tris, 140 mM NaCl, 2 mM EDTA, protease inhibitor cocktail, pH 7.4) and lysates were centrifuged at 16,000 g for 30 min to isolate the cytosolic fraction (supernatant). The cytosolic fraction was analyzed by Western blot using anti-Ras antibody and anti-actin antibody for loaning control.
Western Blotting: Following transfer of SDS gels onto NC membrane, all membranes were blocked with 5% non-fat milk in TBST (50 mM Tris-HCl pH7.4, 150 mM NaCl, 0.1% Tween 20), incubated with primary antibody overnight with 1% BSA in TBST, washed three times with TBST, and incubated with horseradish peroxidase-conjugated secondary antibody for 1 hour (Promega). Bound antibodies were detected using enhanced chemiluminascence (NEM). Results were quantified based on densitometric analysis of Ras signal normalized to actin signal (Ras/actin ratio). Dose response curves were generated for serial dilutions of test compounds, which were then used to measure an IC50 for the test compound by curve fitting with Prism or equivalent software product.

[3] = system: isolated islets / INS1 cells; assay: Oxygen consumption, Seahorse XF24 bioenergetic assay; type: cell-based, mice; settings: 1 nM
Experimental: Impaired mitochondrial function is shown by a decreased rate of oxygen consumption. For example, INS1 cells exposed to palmitate show a significant decrease in oxygen consumption rate, both under basal glucose and following stimulation with glucose. The effect of compound 28 at 1 nM on oxygen consumption was determined at 2.5 and 3.5 day incubation time points. Oxygen consumption in INS1 was measured using a Seahorse XF24 bioenergetic assay. Assays have been previously described in detail (See, Wu M, et al. Am J Physiol Cell Physiol 2007; 292:C125-36).
In one aspect, islet oxygen consumption was measured using the XF24 Islet Capture Microplate available from Seahorse Biosciences. An example of an assay to measure islet consumption is as follows:
Modified XF Assay Media (MA Media): Supplement XF DMEM assay media with 3 mM glucose and 1% FBS to run whole islets. (FBS is needed to prevent islets from becoming too adherent). Components/Formulation of Modified XF Assay Media: […]
The XF assay template is prepared via the Assay Wizard using the XF24 operation manual. The assay template is uploaded to the XF24 Analyzer before starting the assay. […]
Whole islets are prepared by standard laboratory procedure. […] The islets are counted under a dissecting microscope. […] The count of the islets is determined and the volume adjusted so that there are ˜70 islets for every 100 microliters of the islet suspension. […]

SMILES | Ki [1] [nM] | IC50 [2] [nM] | increase in mitochondrial respiration (Oxygen Consumption Rate vs. time, % of base line) ([3]; 2.5 days incubation (FIG. 1)) [%] | increase in oxygen consumption ([3]; isolated islets (FIGS. 1 and 2)) [%]
N#Cc1ccc(Cn2cncc2CN[C@H]2CCN([C@@H]3CCOc4ccc(F)cc43)C2=O)cc1 [Compound 28] | 0.059 | 1.4 | 50 | 50
N#Cc1ccc(Cn2cncc2CN[C@H]2CCN(C3CCOc4ccc(F)cc43)C2=O)cc1 (stereo partly shown) [Compound 70] |  | 42 |  | 
N#Cc1ccc(Cn2cncc2CN[C@@H]2CCN([C@@H]3CCOc4ccc(F)cc43)C2=O)cc1 [Compound 71] |  | 2.5 |  | 

Now from value to compound, other results behind:

Ki [1] [nM] | SMILES | IC50 [2] [nM] | increase in mitochondrial respiration (Oxygen Consumption Rate vs. time, % of base line) ([3]; 2.5 days incubation (FIG. 1)) [%] | increase in oxygen consumption ([3]; isolated islets (FIGS. 1 and 2)) [%]
0.12 | N#Cc1ccc(Cn2cncc2CN[C@H]2CCN([C@@H]3CCCc4ccc(Cl)cc43)C2=O)cc1 [Compound 30] | 2.8 |  | 
0.021 | N#Cc1ccc(Cn2cncc2CN[C@H]2CCN([C@@H]3CCOc4ccc(Cl)cc43)C2=O)cc1 [Compound 29] | 1.8 |  | 
